Data taken from the NIST ThermoML archive (doi:10.1021/je2003012).

Experiment: relative permittivity at various frequencies (dimensionless); wn = mass fraction of the nth substance listed
Settings: Liquid, direct capacitance:P =

O=C=O [carbon dioxide] + CCO
Settings	relative permittivity
322.4 K, 11900 kPa, w2 = 0.1	1.94
322.4 K, 12200 kPa, w2 = 0.1	1.96
322.4 K, 13700 kPa, w2 = 0.1	2.01
322.4 K, 13900 kPa, w2 = 0.1	2.02
322.4 K, 15700 kPa, w2 = 0.1	2.06
322.4 K, 15800 kPa, w2 = 0.1	2.07
322.4 K, 16700 kPa, w2 = 0.1	2.09
322.4 K, 17100 kPa, w2 = 0.1	2.09
322.4 K, 17600 kPa, w2 = 0.1	2.11
322.4 K, 18600 kPa, w2 = 0.1	2.13
322.4 K, 19600 kPa, w2 = 0.1	2.14
322.4 K, 20600 kPa, w2 = 0.1	2.16
322.4 K, 21600 kPa, w2 = 0.1	2.18
322.4 K, 21700 kPa, w2 = 0.1	2.18
322.4 K, 22600 kPa, w2 = 0.1	2.19
322.4 K, 23600 kPa, w2 = 0.1	2.21
322.4 K, 24500 kPa, w2 = 0.1	2.22
322.4 K, 25500 kPa, w2 = 0.1	2.23
322.4 K, 26500 kPa, w2 = 0.1	2.24
322.4 K, 27500 kPa, w2 = 0.1	2.26
322.4 K, 28400 kPa, w2 = 0.1	2.27
322.4 K, 29900 kPa, w2 = 0.1	2.28
322.5 K, 10200 kPa, w2 = 0.05	1.53
322.5 K, 12100 kPa, w2 = 0.05	1.63
322.5 K, 13100 kPa, w2 = 0.05	1.66
322.5 K, 14200 kPa, w2 = 0.05	1.7
322.5 K, 14700 kPa, w2 = 0.05	1.7
322.5 K, 16000 kPa, w2 = 0.05	1.73
322.5 K, 16100 kPa, w2 = 0.05	1.73
322.5 K, 17200 kPa, w2 = 0.05	1.75
322.5 K, 18900 kPa, w2 = 0.05	1.78
322.5 K, 19500 kPa, w2 = 0.05	1.79
322.5 K, 20800 kPa, w2 = 0.05	1.8
322.5 K, 21800 kPa, w2 = 0.05	1.81
322.5 K, 22700 kPa, w2 = 0.05	1.82
322.5 K, 23600 kPa, w2 = 0.05	1.83
322.5 K, 24700 kPa, w2 = 0.05	1.84
322.5 K, 25800 kPa, w2 = 0.05	1.85
322.5 K, 26300 kPa, w2 = 0.05	1.86
322.5 K, 27900 kPa, w2 = 0.05	1.87
322.5 K, 28400 kPa, w2 = 0.05	1.87
322.5 K, 29300 kPa, w2 = 0.05	1.88
322.5 K, 29500 kPa, w2 = 0.05	1.88
322.5 K, 30300 kPa, w2 = 0.05	1.89
323.3 K, 9900 kPa, w2 = 0.152	2.06
323.3 K, 11000 kPa, w2 = 0.152	2.13
323.3 K, 12000 kPa, w2 = 0.152	2.18
323.3 K, 12700 kPa, w2 = 0.152	2.21
323.3 K, 13600 kPa, w2 = 0.152	2.25
323.3 K, 14700 kPa, w2 = 0.152	2.28
323.3 K, 15900 kPa, w2 = 0.152	2.31
323.3 K, 16900 kPa, w2 = 0.152	2.34
323.3 K, 17800 kPa, w2 = 0.152	2.36
323.3 K, 18600 kPa, w2 = 0.152	2.37
323.3 K, 18700 kPa, w2 = 0.152	2.38
323.3 K, 19500 kPa, w2 = 0.152	2.4
323.3 K, 20300 kPa, w2 = 0.152	2.41
323.3 K, 21700 kPa, w2 = 0.152	2.44
323.3 K, 22800 kPa, w2 = 0.152	2.45
323.3 K, 23100 kPa, w2 = 0.152	2.46
323.3 K, 23500 kPa, w2 = 0.152	2.47
323.3 K, 24500 kPa, w2 = 0.152	2.48
323.3 K, 25400 kPa, w2 = 0.152	2.5
323.3 K, 26500 kPa, w2 = 0.152	2.51
323.3 K, 28400 kPa, w2 = 0.152	2.54
323.3 K, 29500 kPa, w2 = 0.152	2.56
323.4 K, 9800 kPa, w2 = 0.212	2.59
323.4 K, 10600 kPa, w2 = 0.212	2.61
323.4 K, 11500 kPa, w2 = 0.212	2.67
323.4 K, 12400 kPa, w2 = 0.212	2.71
323.4 K, 13100 kPa, w2 = 0.212	2.75
323.4 K, 14100 kPa, w2 = 0.212	2.79
323.4 K, 15800 kPa, w2 = 0.212	2.85
323.4 K, 16600 kPa, w2 = 0.212	2.87
323.4 K, 17800 kPa, w2 = 0.212	2.9
323.4 K, 18800 kPa, w2 = 0.212	2.93
323.4 K, 19600 kPa, w2 = 0.212	2.95
323.4 K, 19700 kPa, w2 = 0.212	2.95
323.4 K, 21100 kPa, w2 = 0.212	2.98
323.4 K, 22900 kPa, w2 = 0.212	3.03
323.4 K, 23100 kPa, w2 = 0.212	3.03
323.4 K, 23200 kPa, w2 = 0.212	3.03
323.4 K, 24700 kPa, w2 = 0.212	3.06
323.4 K, 26000 kPa, w2 = 0.212	3.08
323.4 K, 26700 kPa, w2 = 0.212	3.1
323.4 K, 27900 kPa, w2 = 0.212	3.12
323.4 K, 29500 kPa, w2 = 0.212	3.14
323.4 K, 30600 kPa, w2 = 0.212	3.15
